# Assay: Accelerated stability testing at 40° C. and 75% relative humidity, solid form evaluated by X-ray diffraction
# Format: physicochemical
# Conditions: storage time not stated (spectra taken later in time, FIG. 1)
# Description: The term “stable” as used herein refers to less than about 5% conversion of the amorphous form of losartan to a crystalline form of losartan when stored at 40° C. and 75 percent relative humidity for three months.
# The amorphous solids of the following examples were evaluated for the presence of crystals and/or other degradative products using X-ray diffraction (XRD) techniques, supplemented with infrared and differential scanning calorimetry. The examples are meant to further exemplify the invention and are not intended to limit the scope of the invention.
smiles,measurement,value
"CCCCc1nc(Cl)c(CO)n1Cc1ccc(-c2ccccc2-c2nn[nH]n2)cc1 [Example 1, losartan potassium]",Solid form (amorphous/crystalline) by XRD after accelerated stability conditions,almost all of the solid material converted to the crystalline form

# — patent US20060210620A1, “Co-precipitated amorphous losartan and dosage forms comprising the same” (priority 2003, published 2006)
